In patent publication US20240285615A1, “MEDICAMENTS COMPRISING GLYCOSIDASE INHIBITORS” (priority 2021, published 2024):
Like-named read-outs stand apart in the source and are kept apart here.

How the values were obtained:
[1] = test system: transgenic mice (Line 61) overexpressing wildtype human alpha-synuclein; assay: In vivo treatment efficacy on Parkinson disease (PD) model (Line 61); conditions: Line 61 mice, daily oral gavage for 24 weeks
Description: The transgenic mice (Line 61) which overexpresses wildtype human alpha-synuclein protein (hAsyn) under the regulatory control of the murine Thy-1 promoter is a widely used Parkinson disease (PD) animal model. […] In addition, motor deficits such as lack of coordination, diminution of strength, and unbalance are also observed from 2 to 4 months of age (Fleming et al. 2004, J Neurosci 24 (42): 9434-40). Treatment effect of compound of formula (I) is based on the assessment of the behaviour (motoric performance), as well as the quantification of aggregated hAsyn and pser129-Asyn deposits by histology and by the biochemical determination of aggregated hAsyn present in the brain “insoluble fraction” of treated animals.
For this, transgenic Line 61 mice (4 weeks of age) and age/sex-matched non-transgenic littermates are first tested in the Irwin testing battery test, rotarod, wire suspension, beam walk and pasta gnawing test at baseline. […] Right hemibrains are embedded in OCT medium and 10 μm cryosections are collected to quantify the level of hAsyn and pser129-Asyn deposits by immunohistochemistry in the hippocampus and in the cortex of treated animals. […]

[2] = Phase 1 Part 2: cerebrospinal fluid (CSF) pharmacokinetics after multiple BID doses; format: in vivo, human; conditions: for Cmax / AUC / half-life / Tmax: human, oral, CSF; for AUC: read-out: AUC0-tau; for Tmax: median (min, max)
Description: Day 1: Twice a day (BID) dosing. Day 2: No dosing. Day 3-11: 9 days of BID dosing. Day 12: one dose in the morning.

adults with PSP = assay: Randomized, double-blind, placebo-controlled Phase 2 trial in PSP (Example 8); format: in vivo, human; conditions: 75 mg, 150 mg or 300 mg TID PO, 72-week treatment
[3] = Compatibility studies and short-term stability studies of drug substance with excipients; format: physicochemical
Description: Compound (I) is a drug substance with suitable physical, biopharmaceutical, and chemical characteristics for development of an immediate release capsule formulation. […] The blend powder to be filled into the capsules contains common excipients: microcrystalline cellulose, croscarmellose sodium, colloidal silicon dioxide and magnesium stearate. All ingredients were used in concentrations typical for solid oral formulations. The selection of excipients, for the capsule powder, was based on compatibility studies and short-term stability studies. […] The final DP contains the following excipients for the tablet core: microcrystalline cellulose, povidone, croscarmellose sodium, copovidone, silica colloidal anhydrous and sodium stearyl fumarate. A water-based film coat made from hypromellose, macrogol, titanium dioxide and iron oxide was sprayed onto the core tablets. All ingredients were used in quantities typical for oral solid formulations. The selection of excipients was further backed-up by compatibility studies and short-term stability studies of binary mixtures for key ingredients.

[4] = Summary statistics of steady-state metrics by mathematical modeling of pharmacokinetic data; set-up: species or system human
Description: The following summary statistics of steady-state metrics have been determined based on the above experimental results (“Mathematical Modeling of Pharmacokinetic Data”, D. W. A. Bourne, Routledge, 2018): […]

[5] = both sexes, 250 mg BID, Day 12, elderly subjects, arithmetic mean
[6] = both sexes, 500 mg BID, Day 12, elderly subjects, arithmetic mean
[7] = 100 mg BID, Day 12, elderly subjects, N=1

Q: For `CC(=O)Nc1nnc(N2CCN([C@@H](C)c3ccc4c(c3)OCO4)CC2)s1` [Compound (I)], which “behavioural tests (Irwin battery, rotarod, wire suspension, beam walk, pasta gnawing)” value [1] is on record?
A: Its value is “functional benefit (motor improvement)”.

Q: What about the “intraneuronal aggregated pser129-Asyn deposits by histology” value [1] of the same molecule?
A: Its value is “reduction of the number of intraneuronal aggregated pser129-Asyn deposits”.

Q: What about the “blood-brain-barrier penetration (detection in CSF)” value ([2]; Day 12 after multiple doses) of the same molecule?
A: Its value is “penetrated through the blood-brain-barrier”.

Q: What about the Cmax [2, 5] of the same molecule?
A: Its Cmax is 92.5 ng/mL.

Q: And the AUC [2, 5]?
A: The AUC was 485 ng·h/mL.

Q: What about the half-life ([2]; both sexes, 250 mg BID, Day 12, elderly subjects, arithmetic mean, read-out: t1/2 (converted)) of the same molecule?
A: The half-life was 618 min.

Q: What about the Tmax ([2]; both sexes, 250 mg BID, Day 12, elderly subjects) of the same molecule?
A: Its Tmax is 3 h.

Q: And the Cmax [2, 6]?
A: Its Cmax is 282 ng/mL.

Q: What about the AUC [2, 6] of the same molecule?
A: The AUC was 1400 ng·h/mL.

Q: And the half-life ([2]; both sexes, 500 mg BID, Day 12, elderly subjects, arithmetic mean, read-out: t1/2 (converted))?
A: The half-life was 648 min.

Q: What about the Tmax ([2]; both sexes, 500 mg BID, Day 12, elderly subjects) of the same molecule?
A: Its Tmax is 2.02 h.

Q: What about the half-life ([2]; both sexes, 100 to 500 mg BID, read-out: terminal half-life (t½), range of means) of the same molecule?
A: Its half-life is 234 to 642 min.

Q: And the Cmax [2, 7]?
A: The Cmax was 46.7 ng/mL.

Q: And the AUC [2, 7]?
A: The AUC was 236 ng·h/mL.

Q: And the half-life ([2]; 100 mg BID, Day 12, elderly subjects, N=1, read-out: t1/2 (converted))?
A: The half-life was 347 min.

Q: And the Tmax [2, 7]?
A: The Tmax was 4.03 h.

Q: And the “efficacy, safety and tolerability of the preferred dosage regimen” value (adults with PSP)?
A: Its value is “especially effective, safe and well tolerated”.

Q: What about the “stability of the drug substance” value [3] of the same molecule?
A: Its value is “suitably stable”.

Q: What about the compatibility with excipients ([3]; capsule powder: microcrystalline cellulose, croscarmellose sodium, colloidal silicon dioxide, magnesium stearate) of the same molecule?
A: The compatibility with excipients was “no incompatibility with the chosen excipients”.

Q: What about the AUC mean ([4]; BID 125 mg) of the same molecule?
A: The AUC mean was 12589 ng·h/mL.

Q: And the AUC median ([4]; BID 125 mg)?
A: The AUC median was 12388 ng·h/mL.

Q: And the Cavg mean ([4]; BID 125 mg)?
A: Its Cavg mean is 521 ng/mL.

Q: What about the Cavg median ([4]; BID 125 mg) of the same molecule?
A: The Cavg median was 358 ng/mL.

Q: And the Cmax mean ([4]; BID 125 mg)?
A: The Cmax mean was 1508 ng/mL.

Q: What about the Cmax median ([4]; BID 125 mg) of the same molecule?
A: The Cmax median was 1510 ng/mL.

Q: And the Cmin mean ([4]; BID 125 mg)?
A: Its Cmin mean is 139 ng/mL.

Q: And the Cmin median ([4]; BID 125 mg)?
A: Its Cmin median is 130 ng/mL.

Q: What about the AUC mean ([4]; BID 250 mg) of the same molecule?
A: The AUC mean was 25763 ng·h/mL.

Q: And the AUC median ([4]; BID 250 mg)?
A: The AUC median was 25044 ng·h/mL.

Q: What about the Cavg mean ([4]; BID 250 mg) of the same molecule?
A: Its Cavg mean is 1041 ng/mL.

Q: What about the Cavg median ([4]; BID 250 mg) of the same molecule?
A: Its Cavg median is 720 ng/mL.

Q: And the Cmax mean ([4]; BID 250 mg)?
A: Its Cmax mean is 3027 ng/mL.

Q: What about the Cmax median ([4]; BID 250 mg) of the same molecule?
A: Its Cmax median is 3019 ng/mL.

Q: What about the Cmin mean ([4]; BID 250 mg) of the same molecule?
A: The Cmin mean was 307 ng/mL.

Q: What about the Cmin median ([4]; BID 250 mg) of the same molecule?
A: Its Cmin median is 276 ng/mL.

Q: What about the AUC mean ([4]; BID 500 mg) of the same molecule?
A: Its AUC mean is 52673 ng·h/mL.

Q: And the AUC median ([4]; BID 500 mg)?
A: Its AUC median is 52166 ng·h/mL.

Q: What about the Cavg mean ([4]; BID 500 mg) of the same molecule?
A: Its Cavg mean is 2178 ng/mL.

Q: What about the Cavg median ([4]; BID 500 mg) of the same molecule?
A: Its Cavg median is 1531 ng/mL.

Q: What about the Cmax mean ([4]; BID 500 mg) of the same molecule?
A: Its Cmax mean is 6126 ng/mL.

Q: And the Cmax median ([4]; BID 500 mg)?
A: Its Cmax median is 6133 ng/mL.

Q: And the Cmin mean ([4]; BID 500 mg)?
A: The Cmin mean was 654 ng/mL.

Q: What about the Cmin median ([4]; BID 500 mg) of the same molecule?
A: The Cmin median was 617 ng/mL.

Q: And the AUC mean ([4]; TID 75 mg)?
A: The AUC mean was 11072 ng·h/mL.

Q: And the AUC median ([4]; TID 75 mg)?
A: Its AUC median is 10887 ng·h/mL.

Q: And the Cavg mean ([4]; TID 75 mg)?
A: The Cavg mean was 456 ng/mL.

Q: What about the Cavg median ([4]; TID 75 mg) of the same molecule?
A: Its Cavg median is 392 ng/mL.

Q: And the Cmax mean ([4]; TID 75 mg)?
A: Its Cmax mean is 1058 ng/mL.

Q: What about the Cmax median ([4]; TID 75 mg) of the same molecule?
A: The Cmax median was 1053 ng/mL.

Q: What about the Cmin mean ([4]; TID 75 mg) of the same molecule?
A: Its Cmin mean is 109 ng/mL.

Q: What about the Cmin median ([4]; TID 75 mg) of the same molecule?
A: Its Cmin median is 101 ng/mL.

Q: What about the AUC mean ([4]; TID 150 mg) of the same molecule?
A: Its AUC mean is 23204 ng·h/mL.

Q: What about the AUC median ([4]; TID 150 mg) of the same molecule?
A: The AUC median was 22835 ng·h/mL.

Q: What about the Cavg mean ([4]; TID 150 mg) of the same molecule?
A: Its Cavg mean is 951 ng/mL.

Q: And the Cavg median ([4]; TID 150 mg)?
A: Its Cavg median is 827 ng/mL.

Q: And the Cmax mean ([4]; TID 150 mg)?
A: Its Cmax mean is 2162 ng/mL.

Q: And the Cmax median ([4]; TID 150 mg)?
A: Its Cmax median is 2143 ng/mL.

Q: And the Cmin mean ([4]; TID 150 mg)?
A: Its Cmin mean is 257 ng/mL.

Q: And the Cmin median ([4]; TID 150 mg)?
A: The Cmin median was 240 ng/mL.

Q: And the AUC mean ([4]; TID 300 mg)?
A: The AUC mean was 46780 ng·h/mL.

Q: What about the AUC median ([4]; TID 300 mg) of the same molecule?
A: The AUC median was 45869 ng·h/mL.

Q: What about the Cavg mean ([4]; TID 300 mg) of the same molecule?
A: Its Cavg mean is 1909 ng/mL.

Q: And the Cavg median ([4]; TID 300 mg)?
A: The Cavg median was 1660 ng/mL.

Q: What about the Cmax mean ([4]; TID 300 mg) of the same molecule?
A: The Cmax mean was 4348 ng/mL.

Q: What about the Cmax median ([4]; TID 300 mg) of the same molecule?
A: The Cmax median was 4298 ng/mL.

Q: What about the Cmin mean ([4]; TID 300 mg) of the same molecule?
A: The Cmin mean was 533 ng/mL.

Q: And the Cmin median ([4]; TID 300 mg)?
A: The Cmin median was 499 ng/mL.
